Among the data in US9458153B2, “Dihydroquinolizinones for the treatment and prophylaxis of hepatitis B virus infection” (Hoffmann-La Roche Inc., priority 2014, dated 2016) are IC50 values, retold here.

Structures can show the parent of a compound that is named as a salt.

The term IC50 denotes the point on the concentration scale where inhibition reaches its midpoint. Lower therefore signals greater potency in that assay.

One experiment concerns HBsAg. The experiment in a line: HBsAg assay (chemiluminescence immunoassay of secreted HBsAg in HepG2.2.15 culture supernatant). Format: cell-based, HBV. The settings on record: HBsAg secretion reduced by 50% vs no drug control; HepG2.2.15 cells; CLIA kit. Summed up:
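HepG2.2.15 cells, which constitutively express HBV, were seeded in duplicate and treated with three-fold serial compound dilutions at 1% DMSO final. Secreted HBsAg in culture supernatant was measured semi-quantitatively by chemiluminescence immunoassay. IC50 was extrapolated from dose-response curves.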
`CCC1Cc2cc(OCC(F)(F)F)c(OC)cc2-c2cc(=O)c(C(=O)O)cn21` (single isomer, unassigned; (+)) [Example 11, (+)-6-ethyl-10-methoxy-2-oxo-9-(2,2,2-trifluoroethoxy)-6,7-dihydrobenzo[a]quinolizine-3-carboxylic acid] had an IC50 of 17 nM.
On the same count and under the same terms, to `COc1cc2c(cc1OCCCSC)CC(C(C)(C)C)n1cc(C(=O)O)c(=O)cc1-2` (centres unmarked) [Example 183, 6-tert-butyl-10-methoxy-9-(3-methylsulfanylpropoxy)-2-oxo-6,7-dihydrobenzo[a]quinolizine-3-carboxylic acid] belongs 2 nM; to `COc1cc2c(cc1OCCCS(C)(=O)=O)CC(C(C)(C)C)n1cc(C(=O)O)c(=O)cc1-2` (centres unmarked) [Example 186, 6-tert-butyl-10-methoxy-9-(3-methylsulfonylpropoxy)-2-oxo-6,7-dihydrobenzo[a]quinolizine-3-carboxylic acid], 20 nM.
Same read-out and setting: to `COCCCOc1cc2c(cc1OC)-c1cc(=O)c(C(=O)O)cn1C(CC(F)(F)F)C2` (centres unmarked) [Example 199, 10-methoxy-9-(3-methoxypropoxy)-2-oxo-6-(2,2,2-trifluoroethyl)-6,7-dihydrobenzo[a]quinolizine-3-carboxylic acid] belongs 33 nM; to `COCCCOc1cc2c(cc1Cl)-c1cc(=O)c(C(=O)O)cn1C(C(C)(C)C)C2` (centres unmarked) [Example 202, 6-tert-butyl-10-chloro-9-(3-methoxypropoxy)-2-oxo-6,7-dihydrobenzo[a]quinolizine-3-carboxylic acid], 2 nM; to `COCCCOc1cc2c(cc1Cl)-c1cc(=O)c(C(=O)O)cn1C(C1(C)CC1)C2` (centres unmarked) [Example 205, 10-chloro-9-(3-methoxypropoxy)-6-(1-methylcyclopropyl)-2-oxo-6,7-dihydrobenzo[a]quinolizine-3-carboxylic acid], 1 nM.
On the same count and under the same terms, the same measure for `COCCCOc1cc2c(c(F)c1F)-c1cc(=O)c(C(=O)O)cn1C(C(C)C)C2` (centres unmarked) [Example 213, 10,11-difluoro-6-isopropyl-9-(3-methoxypropoxy)-2-oxo-6,7-dihydrobenzo[a]quinolizine-3-carboxylic acid]: 24 nM.

Still in this experiment, the particulars now being: HBsAg secretion reduced by 50% vs no drug control; HepG2.2.15 cells; CLIA kit; hydrochloride.
The molecule `COc1cc2c(cc1OCCN1CCOCC1)CC(C(C)(C)C)n1cc(C(=O)O)c(=O)cc1-2` (centres unmarked) [Example 189, 6-tert-butyl-10-methoxy-9-(2-morpholinoethoxy)-2-oxo-6,7-dihydrobenzo[a]quinolizine-3-carboxylic acid hydrochloride] registered a half-maximal inhibitory concentration (IC50) of 18 nM. In other words, the double-digit nanomolar range.
The molecule `COc1cc2c(cc1OCCCN1CCOCC1)CC(C(C)(C)C)n1cc(C(=O)O)c(=O)cc1-2` (centres unmarked) [Example 192, 6-tert-butyl-10-methoxy-9-(3-morpholinopropoxy)-2-oxo-6,7-dihydrobenzo[a]quinolizine-3-carboxylic acid hydrochloride] came in with a half-maximal inhibitory concentration (IC50) of 10 nM. This IC50 is about 1.8-fold lower than that of the molecule before.

The same experiment, now with this note: Hepatitis B virus, HepG2.2.15, HBsAg secretion reduced by 50% vs no drug control; HepG2.2.15 cells; CLIA kit.
Consider `COc1cc2c(cc1OCCCCCNC(=O)OC(C)(C)C)CC(C(C)(C)C)n1cc(C(=O)O)c(=O)cc1-2` (centres unmarked) [Example 172, 9-[5-(tert-butoxycarbonylamino)pentoxy]-6-tert-butyl-10-methoxy-2-oxo-6,7-dihydrobenzo[a]quinolizine-3-carboxylic acid], for which the IC50 came to 2 nM.
The same measure, in the same setting: the same measure for `COc1cc2c(cc1OCCCCCNC(C)=O)CC(C(C)(C)C)n1cc(C(=O)O)c(=O)cc1-2` (centres unmarked) [Example 175, 9-(5-acetamidopentoxy)-6-tert-butyl-10-methoxy-2-oxo-6,7-dihydrobenzo[a]quinolizine-3-carboxylic acid]: 33 nM; for `COc1cc2c(cc1OCCCCCNS(C)(=O)=O)CC(C(C)(C)C)n1cc(C(=O)O)c(=O)cc1-2` (centres unmarked) [Example 176, 6-tert-butyl-9-[5-(methanesulfonamido)pentoxy]-10-methoxy-2-oxo-6,7-dihydrobenzo[a]quinolizine-3-carboxylic acid]: 3 nM; for `COc1cc2c(cc1OCCN)CC(C(C)(C)C)n1cc(C(=O)O)c(=O)cc1-2` (centres unmarked) [Example 177, 9-(2-aminoethoxy)-6-tert-butyl-10-methoxy-2-oxo-6,7-dihydrobenzo[a]quinolizine-3-carboxylic acid]: 1380 nM.
On the same count and under the same terms, to `COc1cc2c(cc1OCCCOCCN)CC(C(C)(C)C)n1cc(C(=O)O)c(=O)cc1-2` (centres unmarked) [Example 178, 9-[3-(2-aminoethoxy)propoxy]-6-tert-butyl-10-methoxy-2-oxo-6,7-dihydrobenzo[a]quinolizine-3-carboxylic acid] belongs 63 nM; to `CCNCCOCCCOc1cc2c(cc1OC)-c1cc(=O)c(C(=O)O)cn1C(C(C)(C)C)C2` (centres unmarked) [Example 179, 6-tert-butyl-9-[3-[2-(ethylamino)ethoxy]propoxy]-10-methoxy-2-oxo-6,7-dihydrobenzo[a]quinolizine-3-carboxylic acid], 38 nM; to `COc1cc2c(cc1OCCC(F)F)CC(C(C)(C)C)n1cc(C(=O)O)c(=O)cc1-2` (centres unmarked) [Example 180, 6-tert-butyl-9-(3,3-difluoropropoxy)-10-methoxy-2-oxo-6,7-dihydrobenzo[a]quinolizine-3-carboxylic acid], 4 nM.
`CCC(F)(F)Oc1cc2c(cc1OC)-c1cc(=O)c(C(=O)O)cn1C(C(C)(C)C)C2` (centres unmarked) [Example 181, 6-tert-butyl-9-(1,1-difluoropropoxy)-10-methoxy-2-oxo-6,7-dihydrobenzo[a]quinolizine-3-carboxylic acid] showed an IC50 of 12 nM.
`C=CC(F)(F)Oc1cc2c(cc1OC)-c1cc(=O)c(C(=O)O)cn1C(C(C)(C)C)C2` (centres unmarked) [Example 182, 6-tert-butyl-9-(1,1-difluoroallyloxy)-10-methoxy-2-oxo-6,7-dihydrobenzo[a]quinolizine-3-carboxylic acid] had an IC50 of 16 nM.
`COc1cc2c(cc1OCCCN1CCCC1=O)CC(C(C)(C)C)n1cc(C(=O)O)c(=O)cc1-2` (centres unmarked) [Example 195, 6-tert-butyl-10-methoxy-2-oxo-9-[3-(2-oxopyrrolidin-1-yl)propoxy]-6,7-dihydrobenzo[a]quinolizine-3-carboxylic acid]: it took 57 nM to reach half-maximal inhibition (IC50).
Consider `COc1cc2c(cc1OCCCN1CCCC1)CC(C(C)(C)C)n1cc(C(=O)O)c(=O)cc1-2` (centres unmarked) [Example 196, 6-tert-butyl-10-methoxy-2-oxo-9-(3-pyrrolidin-1-ylpropoxy)-6,7-dihydrobenzo[a]quinolizine-3-carboxylic acid], for which the half-inhibitory concentration (IC50) turned out to be 120 nM. Compared with the last molecule, the IC50 is about 2.1-fold higher.
Take `COCCCOc1cc2c(cc1OC)-c1cc(=O)c(C(=O)O)cn1C(C1CCC1)C2` (centres unmarked) [Example 197, 6-cyclobutyl-10-methoxy-9-(3-methoxypropoxy)-2-oxo-6,7-dihydrobenzo[a]quinolizine-3-carboxylic acid]: the IC50 amounted to 3 nM.
Turning to `COc1cc2c(cc1OC)-c1cc(=O)c(C(=O)O)cn1C(CC(F)(F)F)C2` (centres unmarked) [Example 198, 9,10-dimethoxy-2-oxo-6-(2,2,2-trifluoroethyl)-6,7-dihydrobenzo[a]quinolizine-3-carboxylic acid], the IC50 was found to be 230 nM.
Still for that read-out and setting: the same measure for `COc1cc2c(cc1OC)-c1cc(=O)c(C(=O)O)cn1C(Cc1ccccc1)C2` (centres unmarked) [Example 211, 6-benzyl-9,10-dimethoxy-2-oxo-6,7-dihydrobenzo[a]quinolizine-3-carboxylic acid]: 8250 nM; for `COc1cc2c(cc1OCCCn1cccn1)CC(C(C)(C)C)n1cc(C(=O)O)c(=O)cc1-2` (centres unmarked) [Example 216, 6-tert-butyl-10-methoxy-2-oxo-9-(3-pyrazol-1-ylpropoxy)-6,7-dihydrobenzo[a]quinolizine-3-carboxylic acid]: 6 nM; for `COc1cc2c(cc1OCCCn1cncn1)CC(C(C)(C)C)n1cc(C(=O)O)c(=O)cc1-2` (centres unmarked) [Example 217, 6-tert-butyl-10-methoxy-2-oxo-9-[3-(1,2,4-triazol-1-yl)propoxy]-6,7-dihydrobenzo[a]quinolizine-3-carboxylic acid]: 34 nM.
Turning to `COc1cc2c(cc1OCCCC(=O)O)CC(C(C)(C)C)n1cc(C(=O)O)c(=O)cc1-2` (centres unmarked) [Example 218, 6-tert-butyl-9-(3-carboxypropoxy)-10-methoxy-2-oxo-6,7-dihydrobenzo[a]quinolizine-3-carboxylic acid], the IC50 was found to be 145 nM. This IC50 lies about 4.3-fold higher than the previous one.

For the next experiment, the system named is HBV DNA. The experiment in a line: HBV DNA assay (real-time qPCR/TaqMan of extracellular HBV DNA copy number, HepG2.2.15 cells). Format: cell-based. To be noted: Anti HBV DNA production activity in HepG2.2.15 cells; supernatant collected six days after initial administration. As for the experimental part:
HepG2.2.15 cells (Acs et al. Proc Natl Acad Sci USA, 84, (1987), 4641-4), a constitutively HBV-expressing cell line were cultured in DMEM+Glutamax-I medium (Invitrogen, Carlsbad, Calif., USA), supplemented with 10% fetal bovine serum (Invitrogen) and G418 (Invitrogen) at a final concentration of 200 mg/L and maintained in 5% CO2 at 37° C.
The assay employs real-time qPCR (TaqMan) to directly measure extracellular HBV DNA copy number. HepG2.2.15 cells were plated in 96-well microtiter plates. Only the interior wells were utilized to reduce “edge effects” observed during cell culture, the exterior wells were filled with complete medium to help minimize sample evaporation. On the following day, the HepG2.2.15 cells were washed and the medium was replaced with complete medium containing various concentrations of a test compound in triplicate. 3TC was used as the positive control, while media alone was added to cells as a negative control (virus control, VC). Three days later, the culture medium was replaced with fresh medium containing the appropriately diluted drug. Six days following the initial administration of the test compound, the cell culture supernatant was collected, treated with pronase and then used in a real-time qPCR/TaqMan assay to determine HBV DNA copy numbers. Antiviral activity was calculated from the reduction in HBV DNA levels (IC50).
The compounds of the present invention were tested for their capacity to inhibit HBV DNA as described herein.
For orientation: In qPCR the cycle at which signal appears reflects the starting amount.
For the molecule `CCOc1cc2c(cc1OCC)-c1cc(=O)c(C(=O)O)cn1C(CC)C2` (single isomer, unassigned; (+)) [Example 6, (+)-9,10-diethoxy-6-ethyl-2-oxo-6,7-dihydrobenzo[a]quinolizine-3-carboxylic acid], the IC50 came out at 6 nM.
Still for that read-out and setting: the same measure for `CCCOc1cc2c(cc1OC)-c1cc(=O)c(C(=O)O)cn1C(CC)C2` (centres unmarked) [Example 78, 6-ethyl-10-methoxy-2-oxo-9-propoxy-6,7-dihydrobenzo[a]quinolizine-3-carboxylic acid]: 4 nM.

The same experiment, now with this note: Hepatitis B virus, HepG2.2.15, 144 h, Anti HBV DNA production activity in HepG2.2.15 cells; supernatant collected six days after initial administration.
The molecule `CCC1Cc2cc(OCC(F)(F)F)c(OC)cc2-c2cc(=O)c(C(=O)O)cn21` (single isomer, unassigned; (+)) [Example 11, (+)-6-ethyl-10-methoxy-2-oxo-9-(2,2,2-trifluoroethoxy)-6,7-dihydrobenzo[a]quinolizine-3-carboxylic acid] came in with an IC50 of 4 nM. In other words, the single-digit nanomolar range.
